# According to patent publication US20060263802A1 (priority 2003, published 2006):
# Entries after “also recorded” stand apart in the source; their conditions may differ.
# Columns and labels:
# Format in all cases: binding
# [1] = system: human monoclonal antibody CRJA
# [2] = system: human monoclonal antibody CRJB
# [3] = system: human monoclonal antibody CR57
# [4] = system: human monoclonal antibody CRJB; remark: listed apart in the source
# [5] = system: human monoclonal antibody CR57; remark: listed apart in the source
# [6] = system: human monoclonal antibody CRJA; remark: listed apart in the source
Sequence,Binding of CRJA to linear peptide (PEPSCAN-ELISA signal) [1],Binding of CRJB to linear peptide (PEPSCAN-ELISA signal) [2],Binding of CR57 (10 μg/ml) to looped/cyclic peptide (PEPSCAN-ELISA) [3],Binding of CRJB (10 μg/ml) to looped/cyclic peptide (PEPSCAN-ELISA) [4],Binding of CR57 to linear peptide (PEPSCAN-ELISA signal) [5],Binding of CRJA (10 μg/ml) to looped/cyclic peptide (PEPSCAN-ELISA) [6],Binding of CR57 (10 μg/ml) to looped/cyclic peptide (PEPSCAN-ELISA signal) [3],Binding of CRJB (10 μg/ml) to looped/cyclic peptide (PEPSCAN-ELISA signal) [4],Binding of CRJA (10 μg/ml) to looped/cyclic peptide (PEPSCAN-ELISA signal) [6],further results
GTWVAMQTSNETKWC,61,113,71,85,58,62,,,,
VHLPDVHNQVSGVDL,,,,,,,,,,Binding of human monoclonal antibody CRJA to linear peptide (PEPSCAN-ELISA signal) [1]: 104; Binding of human monoclonal antibody CRJB to linear peptide (PEPSCAN-ELISA signal) [2]: 114; Binding of CR57 to looped/cyclic peptide (PEPSCAN-ELISA signal) [3]: 105; Binding of CRJB to looped/cyclic peptide (PEPSCAN-ELISA signal) [4]: 94; Binding of human monoclonal antibody CR57 to linear peptide (PEPSCAN-ELISA signal) [5]: 110; Binding of CRJA to looped/cyclic peptide (PEPSCAN-ELISA signal) [6]: 92
RGLYKSLKGACKLKL,107,121,96,96,90,113,,,,
VEDEGCTNLSGFSYM,82,103,,,74,,83,78,86,
PSGKCSGVAVSSTYC,106,112,,,56,,58,48,73,
DPYDRSLHSRVFPSG,92,120,,,90,,106,71,186,binding of antibody CRJA to looped/cyclic peptide (PEPSCAN OD) [6]: clearly bound
YVTTTFKRKHFRPTP,84,106,,,85,,146,111,137,
NWKMAGDPRYEESLH,69,101,,,58,,94,78,93,
SLLQQHMELLESSVI,108,163,113,85,124,101,,,,
TTKSVSFRRLSHLRK,94,118,92,72,66,97,,,,
DERGLYKSLKGACKL,76,119,152,123,90,85,,,,
LLQQHMELLESSVIP,80,111,123,129,78,165,,,,
KLVPGFGKAYTIFNK,73,114,54,71,47,71,,,,
EELVRKREECLDALE,118,112,79,2,69,104,,,,
WMPENPRLGMSCDIF,97,113,,,88,,199,206,164,binding of antibody CR57 to looped/cyclic peptide (PEPSCAN OD) [3]: clearly bound; binding of antibody CRJB to looped/cyclic peptide (PEPSCAN OD) [4]: display reactivity; also recorded: clearly bound
LGMSCDIFTNSRGKR,100,110,,,76,,102,105,104,
PIDIHHLSCPNNLVV,39,93,,,46,,50,70,38,
DEGCTNLSGFSYMEL,54,23,,,1,,1,60,57,
LDALESIMTTKSVSF,92,116,108,106,97,90,,,,
PTPDACRAAYNWKMA,129,125,,,99,,114,112,136,
VFPSGKCSGVAVSST,68,114,,,74,,79,75,55,
QQHMELLESSVIPLV,100,134,141,92,103,94,,,,
ENPRLGMSCDIFTNS,101,118,,,71,,100,88,113,
